Reference: PMC3457943, “Inhibition of poly(ADP-ribose) Polymerase Interferes with Trypanosoma cruzi Infection and Proliferation of the Parasite” (PLoS ONE, 2012)
pIC50, pKi: −log10 of the molar value. Like-named read-outs stand apart in the source and are kept apart here.

What was measured:
hPARP-1 = details: cited from earlier work
TcPARP [1] = biological target: TcPARP (Trypanosoma cruzi, UniProt Q4PQV7); assay: Homogeneous fluorometric TcPARP activity assay (remaining NAD+); format: biochemical; details: 10 nM TcPARP, 500 nM NAD+; for pIC50: read-out: TcPARP IC50; for IC50: read-out: TcPARP pIC50±SE (converted)
Chain of TcPARP (Trypanosoma cruzi, UniProt Q4PQV7) (Q4PQV7 1-592): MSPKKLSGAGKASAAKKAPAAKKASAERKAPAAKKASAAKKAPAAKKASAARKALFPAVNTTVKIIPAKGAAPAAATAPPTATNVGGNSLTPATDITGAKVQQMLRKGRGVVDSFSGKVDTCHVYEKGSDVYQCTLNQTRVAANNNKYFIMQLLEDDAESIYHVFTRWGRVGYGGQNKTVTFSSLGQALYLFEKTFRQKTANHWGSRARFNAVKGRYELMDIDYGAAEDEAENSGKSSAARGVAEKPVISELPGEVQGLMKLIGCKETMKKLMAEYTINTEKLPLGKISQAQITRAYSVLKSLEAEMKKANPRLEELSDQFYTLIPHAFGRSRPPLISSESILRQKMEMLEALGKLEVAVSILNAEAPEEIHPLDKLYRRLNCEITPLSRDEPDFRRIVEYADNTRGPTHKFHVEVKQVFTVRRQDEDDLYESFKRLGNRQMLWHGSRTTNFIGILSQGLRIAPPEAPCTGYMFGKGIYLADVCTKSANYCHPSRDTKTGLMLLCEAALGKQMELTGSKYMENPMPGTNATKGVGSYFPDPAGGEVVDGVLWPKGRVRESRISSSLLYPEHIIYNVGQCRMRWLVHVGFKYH
Method: (§1) Enzymatic activity was measured using a fluorometric assay, which quantifies the remaining NAD^+ after the enzymatic reaction, [10]. Briefly, TcPARP was incubated with 500 nM NAD^+ in a 96-well U-bottom black propylene plate (Greiner BioOne) in a final volume of 50 µl. The reaction was carried out at 25°C with shaking at 300 rpm using PST-60 HL plus Thermo Shaker (Biosan, Riga, Latvia). The reaction was terminated by the addition of 20 µl of 2 M KOH and 20 µl of 20% acetophenone in ethanol, and plate was incubated at room temperature for 10 minutes. Next, 90 µl of 88% formic acid was added and the plate was incubated at room temperature for 20 minutes. The fluorescence was measured on a Fluoroskan Ascent FL (Thermo Labsystems, Waltham, MA) using excitation at 355 nm and emission at 460 nm. The activity assay was optimized for TcPARP by assaying the effect of pH, DNA concentration, and various additives for the activity of the protein.
(§2) A small in-house library of known PARP inhibitors was screened to evaluate their inhibitory effect against TcPARP. The inhibitor stock solutions were prepared at 10 mM in 100% DMSO and stored at −20°C, except in the case of 3-aminobenzamide, which was prepared at a stock concentration of 1 M in 100% DMSO. The compounds were screened in duplicates at 10 µM and 1 µM concentrations with separate controls for each including only NAD^+ and the compound, but not TcPARP. The protein concentration in the reactions was 10 nM.
(§3) The IC50 value for the first generation PARP inhibitor 3-AB was determined as a reference value. The separate data points were measured in quadruplicates. […] The fluorescence signal was converted to inhibition percentage and fitted using sigmoidal dose-response fitting with variable slope (Graphpad Prism). The curves were extrapolated to 0% and 100% of inhibition by setting their inhibitor concentration 2 log units below or above the first and the last inhibitor concentration, respectively.

[2] = test system: Trypanosoma cruzi infection of Vero cells; assay: Trypanosoma cruzi infection of Vero cells; format: cell-based
Method: (§4) Vero cells were cultured in D-MEM medium (Gibco), supplemented with 2 mM L-glutamine, 10% (v/v) FCS, 100 U/ml penicillin and 100 mg/l streptomycin. The wild type (Sigma-Aldrich) and PARP silenced (sh_PARP) pulmonary adenocarcinoma A549 cell lines were provided by Dr. Virág and Dr. Erdélyi, from the University of Debrecen, Hungary. A549 cells were grown in RPMI-1640 medium (Gibco), supplemented with 2 mM L-glutamine, 1 mM Sodium Pyruvate, 10% (v/v) FCS, 100 U/ml penicillin and 100 mg/l streptomycin.
Trypomastigotes were collected by centrifugation of the supernatant of previously infected cultures at 1500×g at room temperature for 7 minutes and incubated for 3 hours at 37°C in order to allow the trypomastigotes to move from the pellet into the supernatant. After this period, the supernatant was collected and trypomastigotes were counted in a Neubauer chamber. […] For this, 50 trypomastigotes/cell were added to the medium of 24 hour-old monolayers and incubated for 24 hours at 37°C, after which they were removed by changing the cell culture medium. Infections were performed in the media above indicated, but supplemented with 3% (v/v) FCS.
The infection was allowed to proceed and growth medium was changed periodically during the first 5 days. […] At the indicated days, cells were fixed and stained by May Grünwald Giemsa technique. Cells were visualized using an Olympus BX41 microscope. Amastigotes and cells were counted using the ImageJ software in at least 7 microscopic fields. […] Alternatively, trypomastigotes in the supernatant of the cell cultures were counted without prior fixation on a Neubauer Chamber at the indicated days. All experiments were performed in triplicates. Significance of the results were analysed with two-way ANOVA using GraphPad Prism version 5.03 for Windows (GraphPad Software).

[3] = test system: Trypanosoma cruzi infection of A549 wild type cells; assay: Trypanosoma cruzi infection of A549 cells; format: cell-based; details: 25 nM
Method: as §4
Trypomastigotes were collected by centrifugation of the supernatant of previously infected cultures at 1500×g at room temperature for 7 minutes and incubated for 3 hours at 37°C in order to allow the trypomastigotes to move from the pellet into the supernatant. After this period, the supernatant was collected and trypomastigotes were counted in a Neubauer chamber. […]
The infection was allowed to proceed and growth medium was changed periodically during the first 5 days. […] Amastigotes and cells were counted using the ImageJ software in at least 7 microscopic fields. […] Alternatively, trypomastigotes in the supernatant of the cell cultures were counted without prior fixation on a Neubauer Chamber at the indicated days. […] Significance of the results were analysed with two-way ANOVA using GraphPad Prism version 5.03 for Windows (GraphPad Software).

Vero cells = assay: Growth of uninfected Vero cells; format: cell-based; details: presence or absence of Olaparib
T. cruzi epimastigotes [4] = assay: Epimastigote growth inhibition assay (OD 600 nm); format: cell-based, Trypanosoma cruzi
Method: T. cruzi epimastigotes were grown in LIT complete medium for 4 days up to a parasite density of 10^7 parasites/ml. The culture was placed in 96-well sterile plates in 100 µl aliquots and PARP inhibitors were added. Nifurtimox and β-lapachone were used as control compounds. DMSO control was used at 1% v/v concentration. Optical density of the cultures was determined at 600 nm each day for four days to follow parasite growth. Controls for LIT growth medium bearing no parasites were also performed. In all experiments performed, conditions were tested in triplicates. Significance of the results were analysed with one-way ANOVA using GraphPad Prism version 5.03 for Windows (GraphPad Software).

T. cruzi amastigotes = test system: T. cruzi amastigotes; set-up: method as in PMID 6330132; details: millimolar concentrations, mainly axenic amastigote cultures; cited from earlier work
T. cruzi epimastigotes [5] = test system: T. cruzi epimastigotes; set-up: method as in PMID 17936287; details: millimolar concentrations; cited from earlier work
[6] = test system: pADPr formation in human cells; set-up: method as in earlier work; details: cited from earlier work
[7] = test system: pADPr formation in T. cruzi epimastigotes; assay: In vivo inhibition of pADPr formation in epimastigotes challenged with hydrogen peroxide (Western blot); format: cell-based, Trypanosoma cruzi; details: 30 min pre-incubation, 300 µM hydrogen peroxide 10 min
Method: Cell viability was assessed by direct microscopic examination.
Trypanosoma cruzi epimastigotes were grown in LIT complete medium for 4 days up to a parasite density of 10^7 parasites/ml. Parasites were collected by centrifugation at 750×g for 5 minutes and resuspended in PBS-Glucose 2%. T. cruzi epimastigotes were pre-incubated in the presence of inhibitors for 30 minutes and treated with 300 µM hydrogen peroxide for 10 minutes. Cells were harvested by centrifugation at 1500×g, washed with PBS and resuspended in lysis buffer (50 mM Tris–HCl pH 8.0, 1.0 mM EDTA, 10% (v/v) glycerol, 10 mM 2-mercaptoethanol). Protease inhibitors 1 µg/mL trans-epoxysuccinyl-L-leucylamido(4-guanidino) butane (E-64), […], 1 mM phenylmethylsulfonylfluoride (PMSF), and 0.1 mM Na-tosyl-L-lysine chloro-methyl ketone (TLCK) and inhibitor 3-AB (1 mM) were added. Cells were lysed with an Ultrasonic Processor Model W385 Sonicator (Heat Systems-Ultrasonic Inc. Plainview) and the whole extract obtained was used for Western blot. 30 µg of protein were run on 10% SDS–PAGE gel and transferred to Amersham Hybond-ECL nitrocellulose membrane (GE healthcare), according to the manufacturer's instructions. […] The signal was detected with the Western Lightning Plus-ECL (PerkinElmer).

TcPARP [8] = assay: Homogeneous fluorometric TcPARP activity assay (remaining NAD+); format: biochemical, Trypanosoma cruzi; details: TcPARP IC50 versus literature hPARP-1 IC50
Method: as §1, §2, §3

C[C@]1(c2nc3c(C(N)=O)cccc3[nH]2)CCCN1 [Veliparib, 2-[(2R)-2-methylpyrrolidin-2-yl]-1H-1,3-benzodiazole-4-carboxamide]
pKi (hPARP-1): 8.30
pIC50 (TcPARP [1]): 7.08
IC50 (TcPARP [1]): 83.2 nM

O=C(c1cc(Cc2n[nH]c(=O)c3ccccc23)ccc1F)N1CCN(C(=O)C2CC2)CC1 [Olaparib, 4-({3-[(4-cyclopropanecarbonylpiperazin-1-yl)carbonyl]-4-fluorophenyl}methyl)-1,2-dihydrophthalazin-1-one]
number of trypomastigotes in the supernatant ([2]; 25 nM): no significant difference
number of amastigotes per cell ([2]; 25 nM in growth medium): decrease in the number of amastigotes per cell
% of Infected Cells, Day 2 ([2]; Olaparib 25 nM, mean±SD): 38.67±7.68%
% of Infected Cells, Day 4 ([2]; Olaparib 25 nM, mean±SD): 13.54±3.40 %
% of Infected Cells, Day 6 ([2]; Olaparib 25 nM, mean±SD): 22.03±2.36 %
number of amastigotes per cell ([3]; day 6 post-infection): markedly decreased
number of trypomastigotes in the growth medium ([3]; day 9 post-infection): no significant difference
growth of uninfected Vero cells (Vero cells): did not alter the growth of the cell line
decrease in growth of the parasites (T. cruzi epimastigotes [4]; 25 nM): 50%
effect on epimastigote growth (T. cruzi epimastigotes [4]; 25 nM): diminished epimastigote growth significantly
pIC50 (TcPARP [1]): 8.47
IC50 (TcPARP [1]): 3.39 nM

O=c1[nH]c2ccccc2c2ccccc12 [Phenanthridinone, 5,6-dihydrophenanthridin-6-one]
pIC50 (hPARP-1): 6.25
pIC50 (TcPARP [1]): 5.80
IC50 (TcPARP [1]): 1620 nM

CNCc1ccc(-c2[nH]c3cc(F)cc4c3c2CCNC4=O)cc1 [Rucaparib, 6-fluoro-2-{4-[(methylamino)methyl]phenyl}-3,10-diazatricyclo[6.4.1.0^{4,13}]trideca-1,4(13),5,7-tetraen-9-one]
pIC50 (TcPARP [1]): 7.60
IC50 (TcPARP [1]): 25.7 nM

NC(=O)c1cccc(N)c1 [Compound 3-AB, 3-aminobenzamide]
pIC50 (hPARP-1): 4.48
inhibition of differentiation of amastigotes to trypomastigotes (T. cruzi amastigotes): to a lesser extent
effect on T. cruzi epimastigote growth (T. cruzi epimastigotes [5]): able to reduce T. cruzi epimastigote growth
reduction of parasite growth compared to the control (T. cruzi epimastigotes [4]; 660 µM): approximately 60%
reduction of parasite growth compared to the control (T. cruzi epimastigotes [4]; 6.6 mM): approximately 60%
pIC50 (TcPARP [1]): 4.59
IC50 (TcPARP [1]): 26300 nM

Oc1nc(C2CC2)nc2c1CSCC2 [RF03876, 2-cyclopropyl-5H,7H,8H-thiopyrano[4,3-d]pyrimidin-4-ol]
pIC50 (TcPARP [1]): 5.89
IC50 (TcPARP [1]): 1260 nM

Cn1cccc1/C=C1\C(=O)NC(=O)c2ccccc21 [BYK204165, (4Z)-4-[(1-methyl-1H-pyrrol-2-yl)methylidene]-1,2,3,4-tetrahydroisoquinoline-1,3-dione]
pIC50 (hPARP-1): 7.35
TcPARP pIC50±SE (TcPARP [1]): 6.74±0,090
pIC50 (TcPARP [1]): 6.74

CN(C)CC(=O)Nc1ccc2[nH]c(=O)c3ccccc3c2c1 [PJ-34, 2-(dimethylamino)-N-(6-oxo-5,6-dihydrophenanthridin-2-yl)acetamide]
pIC50 (TcPARP [1]): 6.64
IC50 (TcPARP [1]): 224 nM

CC1CS(=O)(=O)CCN1/N=C/c1ccc([N+](=O)[O-])o1 (centres unmarked) [Nifurtimox]
effect on epimastigote growth (T. cruzi epimastigotes [4]; 2.5 µM): small effect

NC(=O)c1cccc2ncc(-c3ccc(Cl)cc3)nc12 [CNQ, 3-(4-chlorophenyl)quinoxaline-5-carboxamide]
pIC50 (hPARP-1): 7.48
pIC50 (TcPARP [1]): 6.77
IC50 (TcPARP [1]): 174 nM

Nc1ncnc2c1ncn2[C@@H]1O[C@H](C(=O)N2CCN(CC(=O)Nc3cccc4c3CNC4=O)CC2)[C@@H](O)[C@H]1O [EB-47, 2-(4-{[(2S,3S,4R,5R)-5-(6-amino-9H-purin-9-yl)-3,4-dihydroxyoxolan-2-yl]carbonyl}piperazin-1-yl)-N-(1-oxo-2,3-dihydro-1H-isoindol-4-yl)acetamide]
pIC50 (hPARP-1): 7.35
inhibition of pADPr formation in human cells [6]: inhibit pADPr formation
inhibition of pADPr formation in parasites ([7]; 43 nM): did not inhibit TcPARP at all
selectivity for TcPARP over hPARP-1 (TcPARP [8]): approximately five-fold

COc1cccc(C(N)=O)c1 [3-methoxybenzamide]
inhibition of differentiation of amastigotes to trypomastigotes (T. cruzi amastigotes): able to inhibit differentiation of amastigotes to trypomastigotes

Cc1nc2c(c(=O)[nH]1)CSCC2 [DR2313, 2-methyl-1H,4H,5H,7H,8H-thiopyrano[4,3-d]pyrimidin-4-one]
pIC50 (TcPARP [1]): 5.85
IC50 (TcPARP [1]): 1380 nM

Nc1ccc2c3c(cccc13)C(=O)NC2=O [Compound 4-ANI, 8-amino-3-azatricyclo[7.3.1.0^{5,13}]trideca-1(12),5,7,9(13),10-pentaene-2,4-dione]
pIC50 (hPARP-1): 7.66
inhibition of pADPr formation in parasites ([7]; 215 nM): did not show complete inhibition
pIC50 (TcPARP [1]): 7.37
IC50 (TcPARP [1]): 42.7 nM

CC1(C)CCC2=C(O1)c1ccccc1C(=O)C2=O [β-lapachone]
effect on epimastigote growth (T. cruzi epimastigotes [4]; 2.5 µM): small effect
